Converted amounts (≈) assume the structure as drawn. “And” between values parts separate entries of the source, which are not always exact repeats. Equal values may be shown once. Read-outs that look alike come from different tables or passages of the source.
Key:
PBP1b [1] = target: T1, PBP1b (Streptococcus pneumoniae, UniProt Q7CRA4); assay: PBP1b inhibition, hydrolysis of thioester substrate analogue (residual activity, IC50); type: biochemical
Procedure: The inhibitory activity of 26 compounds was tested in the assay[31] employing a thioester substrate analogue at a concentration of 500 and 50 µM (Table S1).
Residual activities were determined by the ability of a potential inhibitor to hinder the hydrolysis of substrate analogue thioester (2-((benzoyl-D-alanyl)thio)acetic acid) as already described. PBP1b, prepared according to literature[31] (0.8 µM), was incubated with potential inhibitor (final concentration 500 µM) in 10 mM sodium phosphate buffer (pH = 7.0) in the presence of 100 mM D-alanine, 0.01 mg/mL BSA, and 0.01% Triton-X-100 for 60 min at 25 °C. After preincubation, the 5,5′-dithiobis-(2-nitrobenzoic acid) (DTNB) and thioester were added to each well to initiate the reaction and to obtain a final concentration of 1 mM and 5 mM, respectively. The final volume of the reaction was 150 µL. The initial rate of thioester hydrolysis was determined by measuring the absorbance at 412 nm for 30 min using a microtiter 96-well plate and Biotek Synergy H4 Hybrid microplate reader. The same assay was performed in the absence of an inhibitor. […] All experiments were run in triplicate. The ratio of the rate of reaction with inhibitor to the rate of reaction without compound expressed as a percentage gives the (RA [%] = ((vi – b)/(vo – b)) * 100, where b is the blank value for the initial rate of spontaneous hydrolysis of the thioester in the presence of the potential inhibitor and in the absence of PBP1b). The IC50 values were determined by measuring the reaction rates at seven different inhibitor concentrations.

E. coli (ATCC 25922) = assay: Antimicrobial testing, broth microdilution (MIC); type: cell-based; conditions: Escherichia coli, ATCC25922; E. coli ATCC 25922, 20 h at 35 °C
Procedure: (§1) Antimicrobial testing was carried out by the broth microdilution method in 96-well plate format following the CLSI guidelines and European Committee for Antimicrobial Susceptibility Testing recommendations. Bacterial suspension of specific bacterial strain equivalent to 0.5 McFarland turbidity standard was diluted with cation-adjusted Mueller Hinton broth to obtain a final inoculum of 10^5 CFU/mL. Compounds dissolved in DMSO and inoculum were mixed together and incubated for 20 h at 35 °C. After incubation the minimal inhibitory concentration (MIC) values were determined by visual inspection as the lowest dilution of compounds showing no turbidity. The MICs were determined against S. aureus (ATCC 29213) and E. coli (ATCC 25922) bacterial strains. Tetracycline was used as a positive control on every assay plate.

S. aureus (ATCC 29213) = assay: Antimicrobial testing, broth microdilution (MIC); type: cell-based; conditions: Staphylococcus aureus, ATCC29213; S. aureus ATCC 29213, 20 h at 35 °C
Procedure: as §1

PBP1b [2] = target: T1, PBP1b; assay: LC-MS/MS covalent labelling of PBP1b; type: binding; conditions: 450-fold excess of compound, 45 °C, 2 h
Procedure: Further experimental study of 2-formylbenzeneboronic acid 29 and 30 was performed to characterise their binding.
The measurements were preformed analogously to those reported in Kollár et al. and Petri et al.[68]^,[69] The protein stock solution (20.0 µL and 37.0 µM) was diluted with buffer solution (20.0 µL; pH 7.0; 20 mM Hepes, 100 mM NaCl, 1 mM EDTA, and 10% glycerol), then the stock solution of the inhibitor (0.66 µL, 500 mM in DMSO) was added. The sample was incubated at 45 °C for 120 min and then subjected to LC-MS/MS measurements. The molecular weights of the conjugates of PBP1b were identified using a Triple TOF 5600+ hybrid Quadrupole-TOF LC/MS/MS system (Sciex, Singapore, Woodlands) equipped with a DuoSpray IonSource coupled with a Shimadzu Prominence LC20 UFLC (Shimadzu, Kyoto, Japan) system consisting of binary pump, an autosampler and a thermostated column compartment.
Data acquisition and processing were performed using Analyst TF software version 1.7.1 (AB Sciex Instruments, Redwood City, CA). Chromatographic separation was achieved on a Merck BIOshell^TM 400 Å Protein C18 (75 mm × 2.1mm, 3.4 µm, 400 Å) HPLC column. Sample was eluted in gradient elution mode using solvent A (0.1% formic acid in water) and solvent B (0.1% formic acid in ACN). […]

[3] = 1 h, pH 7, Table S1, 50 µM, 60 min preincubation; read-out: RA%@50µM PBP1b S.pneumoniae, 60 min preincubation
[4] = 1 h, pH 7, Table S1, 500 µM, 60 min preincubation; read-out: RA%@500µM PBP1b S.pneumoniae, 60 min preincubation
[5] = PBP1b 0.8 µM, 60 min preincubation at 25 °C, thioester substrate; read-out: IC50
[6] = 1 h, pH 7, residual activity at 500 µM inhibitor, 60 min preincubation; read-out: RA [%] @500 µM

Structure (SMILES) | IC50 (PBP1b [1]; [5]) | MIC (E. coli (ATCC 25922)) | MIC (S. aureus (ATCC 29213)) | activity at 500 µM (PBP1b [1]; [6]) | also measured
C[C@H]1[C@H](NC(=O)/C(=N\OC(C)(C)C(=O)O)c2csc(N)n2)C(=O)N1S(=O)(=O)O [Aztreonam, reference compound] |  |  |  |  | activity at 500 µM (PBP1b [1]; 1 h, pH 7, read-out: RA [%] @500 µM): 1.4 ± 0.1%; IC50 (PBP1b [1]; IC50, PBP1b 0.8 µM, 60 min preincubation at 25 °C, thioester substrate): < 0.8 µM
CC(NC(=O)c1ccc(B(O)O)cc1)C1CCC(F)(F)CC1 (stereo not shown) [Compound 1] | 127 ± 14.4 µM | > 250 µM | > 250 µM |  | activity at 50 µM (PBP1b [1]; [3]): 78.8 ± 2.7%; activity at 500 µM (PBP1b [1]; [4]): < 50%
O=C(c1ccn(-c2cccc([N+](=O)[O-])c2)n1)N1CCC(B(O)O)C1 (stereo not shown) [Compound 2] | 206 ± 21.7 µM | > 250 µM | 125 µM (≈ 41.3 µg/mL) |  | activity at 50 µM (PBP1b [1]; [3]): 83.5 ± 0.1%; activity at 500 µM (PBP1b [1]; [4]): < 50%
Cc1cc(C(=O)N2CCC(B(O)O)C2)ccn1 (stereo not shown) [Compound 3] |  |  |  | 86.3 ± 8.4% | 
O=C(C1Cc2cccc(F)c2O1)N1CCC(B(O)O)C1 (stereo not shown) [Compound 4] |  |  |  | 60.9 ± 7.6% | 
CCC(=O)Nc1cccc(C(=O)N2CCC(B(O)O)C2)c1 (stereo not shown) [Compound 5] |  |  |  | 85.7 ± 9.5% | 
Cn1cc(C(=O)N2CCC(B(O)O)C2)nn1 (stereo not shown) [Compound 6] |  |  |  | 81.1 ± 1.6% | 
Cn1cc(C(=O)NCB(O)O)nn1 [Compound 8] | ~213 µM and 213 µM | > 250 µM | > 250 µM |  | 
O=C(NCB(O)O)c1ccccc1F [Compound 9, reference compound] | 28.2 ± 7.4 µM | > 250 µM | > 250 µM |  | free energy gain in complex formation (ΔGdc) (PBP1b [1]; from IC50 accepted as approximation to Ki): -6.2 kcal/mol
CC(=O)c1ccccc1B(O)O [Compound 31] |  |  |  |  | PBP1b inhibition (in words) (PBP1b [1]): inactive; activity at 500 µM (PBP1b [1]; 1 h, pH 7; read-out: RA [%] @500 µM): 96.7%

The next lines start with results.

IC50 (PBP1b [1]; [5]) | MIC (E. coli (ATCC 25922)) | MIC (S. aureus (ATCC 29213)) | activity at 500 µM (PBP1b [1]; [6]) | Structure (SMILES) | also measured
 |  |  | 48.1 ± 2% | CC1(C)OB(C(CC(=O)Nc2ccccc2)NC(=O)c2ccccc2F)OC1(C)C (stereo not shown) [Compound 17] | 
 |  |  | 66.3 ± 7% | CC1(C)OB(C(CC(=O)N(Cc2ccccc2)Cc2ccccc2)NC(=O)c2ccccc2F)OC1(C)C (stereo not shown) [Compound 18] | 
 | > 250 µM | 62.5 µM (≈ 27.1 µg/mL) | 68.9 ± 8.2% | O=C(NC(CC(=O)N(Cc1ccccc1)Cc1ccccc1)B(O)O)c1ccccc1F (stereo not shown) [Compound 19] | 
119 ± 6 µM | > 250 µM | > 250 µM |  | O=Cc1ccccc1B(O)O [Compound 29] | PBP1b inhibition (in words) (PBP1b [1]): inhibitors of PBP1b; time-dependent inhibition (PBP1b [1]): No time-dependent inhibition; labelling of PBP1b in MS/MS experiments (PBP1b [2]): single labelling of PBP1b was observed
200 ± 15.3 µM | > 250 µM | > 250 µM |  | O=Cc1cc(C(F)(F)F)ccc1B(O)O [Compound 30] | PBP1b inhibition (in words) (PBP1b [1]): inhibitors of PBP1b; time-dependent inhibition (PBP1b [1]): No time-dependent inhibition; labelling of PBP1b in MS/MS experiments (PBP1b [2]): single labelling of PBP1b was observed
 |  |  | 96.6 ± 0.6% | CC1(C)OB(c2ccccc2CNc2ccccc2C=O)OC1(C)C [Compound 32] | PBP1b inhibition (in words) (PBP1b [1]): does not inhibit PBP1b at 1 mM concentration
 |  |  | 56.9 ± 0.8% | O=Cc1ccccc1NCc1ccccc1B(O)O [Compound 33] | PBP1b inhibition (in words) (PBP1b [1]): slight activity in the millimolar concentration range

Source: publication PMC10901194, “Boronic acid inhibitors of penicillin-binding protein 1b: serine and lysine labelling agents” (Journal of Enzyme Inhibition and Medicinal Chemistry, 2024)
